Test results as given in article PMC7717712, “The effects of cardiac drugs on human erythrocyte carbonic anhydrase I and II isozymes” (Journal of Enzyme Inhibition and Medicinal Chemistry, 2020).
Entries after “also recorded” stand apart in the source; their conditions may differ. Counter-ions that a name gives are not always drawn.

Legend:
[1] = molecular target: T1, human carbonic anhydrase I (hCA I) (Homo sapiens, UniProt P00915); experiment: Esterase activity assay (4-nitrophenyl-acetate), hCA I; type: biochemical
T1 construct: from tissue
Procedure: (§1) Blood samples (25 ml) from healthy human volunteers were collected. They were centrifuged at 1000g for 20 min at 4 °C, and the supernatant was removed. The packed erythrocytes were washed three times with 0.9% NaCl and then were hemolyzed in cold water. The pH of the hemolysate was adjusted to 8.5 with the solid Tris base. The 25-ml hemolysate was applied to an affinity column containing y Sepharose 4B-ethylene diamine-4-isothiocyanato-benzenesulfonamide[14].
(§2) The inhibitory effects of the drugs on enzyme activities were tested under in vitro conditions.

[2] = molecular target: T1, human carbonic anhydrase I (hCA I); experiment: CO2 hydratase activity assay (Maren method), hCA I; type: biochemical
Procedure: as §1, with “diamine-4-isothiocyanato-benzenesulfonamide[14]. CA isozymes were then eluted with 0.1 M NaCl/25 mM Na2HPO4 (pH 6.3) and 0.1 M CH3COONa/0.5 M NaClO4 (pH 5.6), which recovered hCA I and II, respectively.” for “diamine-4-isothiocyanato-benzenesulfonamide[14].”
(§3) CA activity was measured by the Maren method based on the determination of the time required for the pH to decrease from 10.0 to 7.4 due to CO2 hydration. The assay solution was 0.5 M Na2CO3/0.1 M NaHCO3 (pH 10.0), and phenol red was added as the pH indicator. Carbon dioxide-hydratase activity was calculated in enzyme units (EU) with the following equation: t0 – tc/tc, where t0 and tc are the times for the pH change of the nonenzymatic and the enzymatic reactions, respectively.
(§4) The drugs were triturated in a porcelain mortar pestle. Stock solutions of both drugs were prepared in dimethyl sulfoxide (DMSO). Different concentrations of the drugs were added to the enzyme activity determination medium with a total volume of 4.2 ml. The duration (in seconds) of the colour change from red to yellow in solution was measured in a 10-ml glass tube with a diameter of 1 cm. Control cuvette activity in the absence of the inhibitor was set at 100%. All compounds were tested in triplicate at each concentration used. For each inhibitor, an activity %–[inhibitor] graph was drawn (data not shown).

[3] = molecular target: T2, human carbonic anhydrase II (hCA II) (Homo sapiens, UniProt P00918); experiment: Esterase activity assay (4-nitrophenyl-acetate), hCA II; type: biochemical
T2 construct: from tissue
Procedure: as §1, §2

[4] = molecular target: T2, human carbonic anhydrase II (hCA II); experiment: CO2 hydratase activity assay (Maren method), hCA II; type: biochemical
Procedure: as §1, with “diamine-4-isothiocyanato-benzenesulfonamide[14]. CA isozymes were then eluted with 0.1 M NaCl/25 mM Na2HPO4 (pH 6.3) and 0.1 M CH3COONa/0.5 M NaClO4 (pH 5.6), which recovered hCA I and II, respectively.” for “diamine-4-isothiocyanato-benzenesulfonamide[14].”
as §3, §4

[5] = system: aldehyde oxidase; parameters: method as in PMID 14681337; conditions: read-out: aldehyde oxidase inhibition (concentration printed without endpoint name); cited from earlier work
[6] = system: CYP3A4; parameters: method as in earlier work; conditions: concentration-dependent; read-out: IC50, CYP3A4 enzyme activity; cited from earlier work
[7] = system: 15 hCA isoforms (hCA I–XIV); conditions: cited from earlier work
[8] = molecular target: glucose-6-phosphate dehydrogenase; parameters: method as in PMID 29947262; conditions: cited from earlier work
[9] = system: CA-I levels / atherosclerosis; parameters: method as in PMID 31354482; conditions: cited from earlier work
[10] = esterase method, 4-nitrophenyl-acetate, 348 nm, 25 °C, read-out: IC50 (esterase) hCA I
[11] = hydratase method, enzyme purified from human erythrocytes, read-out: IC50 (hydratase) hCA I
[12] = esterase method, 4-nitrophenyl-acetate, 348 nm, 25 °C, read-out: IC50 (esterase) hCA II
[13] = hydratase method, enzyme purified from human erythrocytes, read-out: IC50 (hydratase) hCA II

T1 sequence (P00915 whole entry): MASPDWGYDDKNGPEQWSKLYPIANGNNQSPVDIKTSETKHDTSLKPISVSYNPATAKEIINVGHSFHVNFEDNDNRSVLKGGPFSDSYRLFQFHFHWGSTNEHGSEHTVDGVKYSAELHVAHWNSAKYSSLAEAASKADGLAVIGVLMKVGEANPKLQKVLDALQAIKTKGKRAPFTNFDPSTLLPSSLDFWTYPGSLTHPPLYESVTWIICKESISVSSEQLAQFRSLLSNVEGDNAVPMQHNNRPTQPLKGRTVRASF

Row | Structure (SMILES) | IC50 [1, 10] [µM] | IC50 [2, 11] [µM] | IC50 [3, 12] [µM] | IC50 [4, 13] [µM] | other results
1 | CC(=O)Oc1ccccc1C(=O)O [Acetylsalicylic acid] | 43 | 252 | – | – | –
2 | CCCCc1oc2ccccc2c1C(=O)c1cc(I)c(OCCN(CC)CC)c(I)c1 [Amiodorane hydrochloride] | 8.47 | 389 | 12.4 | 405 | –
3 | CCOC(=O)C1=C(COCCN)NC(C)=C(C(=O)OC)C1c1ccccc1Cl (stereo not shown) [Amlodipine] | 38.5 | 133 | 38.8 | 126 | IC50 [5]: 5.5 µM
4 | COc1ccc(-n2nc(C(N)=O)c3c2C(=O)N(c2ccc(N4CCCCC4=O)cc2)CC3)cc1 [Apixaban] | 384 | 88.4 | 386 | 110 | –
5 | CC(C)c1c(C(=O)Nc2ccccc2)c(-c2ccccc2)c(-c2ccc(F)cc2)n1CC[C@@H](O)C[C@@H](O)CC(=O)O [Atorvastatin] | 7.75 | 243 | 9.85 | 390 | IC50 [6]: […]; inhibition of the 15 hCA isoforms (hCA I–XIV) [7]: submicromolar–low nanomolar inhibition
6 | CC(C)NCC(O)COc1ccc(COCCOC(C)C)cc1 (stereo not shown) [Bisoprolol hemifumarate] | 156 | 107 | 244 | 221 | –
7 | CCOc1nc2cccc(C(=O)OC(C)OC(=O)OC3CCCCC3)c2n1Cc1ccc(-c2ccccc2-c2nnn[nH]2)cc1 (stereo not shown) [Candesartan cilexetil] | 342 | 185 | 177 | 271 | –
8 | C[C@H](CS)C(=O)N1CCC[C@H]1C(=O)O [Captopril] | 1.58 | 121 | 6.25 | 131 | –
9 | COc1ccccc1OCCNCC(O)COc1cccc2[nH]c3ccccc3c12 (stereo not shown) [Carvedilol] | 20.2 | 61.2 | 46.4 | 79 | –
10 | COC(=O)[C@H](c1ccccc1Cl)N1CCc2sccc2C1 [Clopidogrel] | 94 | 250 | 103 | 364 | –
11 | CCCCCCOC(=O)NC(=N)c1ccc(NCc2nc3cc(C(=O)N(CCC(=O)OCC)c4ccccn4)ccc3n2C)cc1 [Dabigatran etexilate] | 15.3 | 113 | 15.3 | 116 | –
12 | C[C@H]1O[C@@H](O[C@H]2[C@@H](O)C[C@H](O[C@H]3[C@@H](O)C[C@H](O[C@H]4CC[C@@]5(C)[C@H](CC[C@@H]6[C@@H]5C[C@@H](O)[C@]5(C)[C@@H](C7=CC(=O)OC7)CC[C@]65O)C4)O[C@@H]3C)O[C@@H]2C)C[C@H](O)[C@@H]1O [Digoxin] | 23.1 | 74.9 | 32.8 | 88 | –
13 | COc1ccc([C@@H]2Sc3ccccc3N(CCN(C)C)C(=O)[C@@H]2OC(C)=O)cc1 [Diltiazem] | 232 | 624 | 325 | 477 | –
14 | COc1cc2nc(N3CCN(C(=O)C4COc5ccccc5O4)CC3)nc(N)c2cc1OC (stereo not shown) [Doxazosin mesylate] | 303 | 228 | 417 | 215 | –
15 | CN1CCc2nc(C(=O)N[C@@H]3C[C@@H](C(=O)N(C)C)CC[C@@H]3NC(=O)C(=O)Nc3ccc(Cl)cn3)sc2C1 [Edoxaban] | 45.5 | 94 | 34.2 | 67 | –
16 | NS(=O)(=O)c1cc(C(=O)O)c(NCc2ccco2)cc1Cl [Furosemide] | – | – | – | – | IC50 [8]: 526 µM
17 | O=[N+]([O-])OCC(CO[N+](=O)[O-])O[N+](=O)[O-] [Glyceryl trinitrate] | – | – | – | – | IC50 [2]: 220 µM; IC50 [4]: 272 µM

Row | Structure (SMILES) | IC50 [1, 10] [µM] | IC50 [2, 11] [µM] | IC50 [3, 12] [µM] | IC50 [4, 13] [µM] | other results
18 | CCCCC1=NC2(CCCC2)C(=O)N1Cc1ccc(-c2ccccc2-c2nnn[nH]2)cc1 [Irbesartan] | 345 | 235 | 335 | 239 | –
19 | O=[N+]([O-])O[C@@H]1CO[C@H]2[C@@H]1OC[C@@H]2O [Isosorbide mononitrate] | – | – | – | – | IC50 [1]: 6.08 µM; IC50 [3]: 5.5 µM; IC50 [2]: 160 µM; IC50 [4]: 160 µM
20 | COc1cc2c(cc1OC)CC(=O)N(CCCN(C)C[C@H]1Cc3cc(OC)c(OC)cc31)CC2 [Ivabradine] | 107 | – | 117 | – | –
21 | CCOC(=O)C1=C(C)NC(C)=C(C(=O)OCC)C1c1ccccc1/C=C/C(=O)OC(C)(C)C [Lacidipine] | 150 | 696 | 155 | 482 | –
22 | COC(=O)C1=C(C)NC(C)=C(C(=O)OC(C)(C)CN(C)CCC(c2ccccc2)c2ccccc2)C1c1cccc([N+](=O)[O-])c1 (stereo not shown) [Lercanidipine hydrochloride] | 294 | 201 | 423 | 159 | –
23 | CCN(CC)CC(=O)Nc1c(C)cccc1C [Lidocaine HCl] | – | 19.6 | – | 2 | –
24 | COCCc1ccc(OCC(O)CNC(C)C)cc1 (stereo not shown) [Metoprolol succinate] | 319 | 400 | 329 | 168 | –
25 | OC(CNCC(O)C1CCc2cc(F)ccc2O1)C1CCc2cc(F)ccc2O1 (stereo not shown) [Nebivolol hydrochloride] | 404 | 73.7 | 410 | 95.3 | –
26 | CC(=O)Oc1cc2c(s1)CCN(C(C(=O)C1CC1)c1ccccc1F)C2 (stereo not shown) [Prasugrel] | 330 | 155 | 429 | 205 | –
27 | CCCNCC(O)COc1ccccc1C(=O)CCc1ccccc1 (stereo not shown) [Propafenone] | 2.8 | 228 | 3.02 | 235 | Inhibition type, hCA I ([1]; Lineweaver–Burk plot): non-competitive; Ki ([1]; from Lineweaver–Burk plot): 2.38 µM; Inhibition type, hCA II ([3]; Lineweaver–Burk plot): non-competitive; Ki ([3]; from Lineweaver–Burk plot): 2.97 µM
28 | CC(C)NCC(O)COc1cccc2ccccc12 (stereo not shown) [Propranolol] | – | 1.77 | – | – | –
29 | CCOC(=O)[C@H](CCc1ccccc1)N[C@@H](C)C(=O)N1[C@H](C(=O)O)C[C@@H]2CCC[C@@H]21 [Ramipril] | 32.3 | 281 | 37.9 | 154 | –
30 | COc1ccccc1OCC(O)CN1CCN(CC(=O)Nc2c(C)cccc2C)CC1 (stereo not shown) [Ranolazine] | 600 | 503 | 645 | 544 | –
31 | O=C(NC[C@H]1CN(c2ccc(N3CCOCC3=O)cc2)C(=O)O1)c1ccc(Cl)s1 [Rivaroxaban] | 189 | 220 | 244 | 204 | –
32 | CCCSc1nc(N[C@@H]2C[C@H]2c2ccc(F)c(F)c2)c2nnn([C@@H]3C[C@H](OCCO)[C@@H](O)[C@H]3O)c2n1 [Ticagrelor] | 54 | 168 | 52.1 | 195 | –
33 | COc1ccc(CN2CCNCC2)c(OC)c1OC [Trimetazidine dihydrochloride] | 112 | 196 | 112 | 151 | –
34 | CC(=O)/N=c1/sc(S(N)(=O)=O)nn1C [methazolamide] | – | – | – | – | CA-I levels / CA-I expression ([9]; animal atherosclerosis model): decreased CA-I levels; also recorded: suppresses CA-I expression; atherosclerosis [9]: significantly reduces atherosclerosis
